Measured values: patent US7015228B2, “4-amino-2-(2-pyridyl)pyrimidines as microbicidal active substances” (Ciba Specialty Chemicals Corporation, priority 2001, dated 2006)
Values after ≈ are worked out from the molar mass of the structure shown.

Columns and labels:
Type in all cases: cell-based
[1] = system: Trichophyton mentagrophytes ATCC 9533; assay: Minimum inhibitory concentration (MIC), further microorganisms; conditions: Table 8; * = significant inhibition of growth, but not complete inhibition
Summary of the method: (§1)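 Broth microdilution in DMSO, 1:2 series; inocula adjusted to 1–5×10^6 CFU/ml then diluted 1:100 in CASO broth (bacteria, yeast) or Sabouraud 2% glucose broth (mould). Incubation 48 h at 37° C or 5 days at 28° C; MIC = lowest concentration giving ≦20% growth versus control by OD 620 nm.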

[2] = system: Pseudomonas aeruginosa CIP A-22; assay: as above; conditions: Table 8
Summary of the method: as §1

[3] = system: Epidermophyton floccosum DSM 10709; assay: as above; conditions: Table 8; * = significant inhibition of growth, but not complete inhibition
Summary of the method: as §1

[4] = system: Candida albicans ATCC 10231; assay: as above; conditions: Table 8; * = significant inhibition of growth, but not complete inhibition
Summary of the method: as §1

[5] = system: Aspergillus niger ATCC 6275; assay: as above; conditions: Table 8; * = significant inhibition of growth, but not complete inhibition
Summary of the method: as §1

[6] = system: S. epidermidis ATCC 12228; assay: as above; conditions: Table 8; * = significant inhibition of growth, but not complete inhibition
Summary of the method: as §1

[7] = system: Staphylococcus aureus ATCC 9144; assay: as above; conditions: Table 8; * = significant inhibition of growth, but not complete inhibition
Summary of the method: as §1

[8] = system: Klebsiella pneumonia ATCC 4352; assay: as above; conditions: Table 8; * = significant inhibition of growth, but not complete inhibition
Summary of the method: as §1

[9] = system: Micrococcus luteus ATCC 9341; assay: as above; conditions: Table 8; * = significant inhibition of growth, but not complete inhibition
Summary of the method: as §1

[10] = system: Enterococcus hirae ATCC 10541; assay: as above; conditions: Table 8; * = significant inhibition of growth, but not complete inhibition
Summary of the method: as §1

[11] = system: Salmonella choleraesuis ATCC 10708; assay: as above; conditions: Table 8
Summary of the method: as §1

[12] = system: Staphylococcus hominis DMS 20328; assay: Minimum inhibitory concentration (MIC) in microtitre plates; conditions: Table 7; 48 hours at 37° C.; MIC = ≦20% growth compared to control
Summary of the method: (§2)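 Compounds in DMSO, 1:2 dilution series; bacteria at 1–5×10^6 CFU/ml diluted 1:100 in CASO broth. Incubation 48 h at 37° C, growth read as OD 620 nm. MIC is the lowest concentration giving ≤20% growth relative to control; duplicates.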

[13] = system: Escherichia coli NCTC 8196; assay: as above; conditions: for Minimum inhibitory concentration (MIC) E. coli: Table 7, 48 hours at 37° C., MIC = ≦20% growth compared to control; for Minimum inhibitory concentration (MIC) E. coli NCTC 8196: Table 8, * = significant inhibition of growth, but not complete inhibition
Summary of the method: as §2

| SMILES | Minimum inhibitory concentration (MIC) Trichophyton mentagrophytes ATCC 9533 [1] | Minimum inhibitory concentration (MIC) Pseudomonas aeruginosa CIP A-22 [2] | Minimum inhibitory concentration (MIC) Epidermophyton floccosum DSM 10709 [3] | Minimum inhibitory concentration (MIC) Candida albicans ATCC 10231 [4] | Minimum inhibitory concentration (MIC) Aspergillus niger ATCC 6275 [5] | Minimum inhibitory concentration (MIC) S. epidermidis ATCC 12228 [6] | Minimum inhibitory concentration (MIC) Staphylococcus aureus ATCC 9144 [7] | Minimum inhibitory concentration (MIC) Klebsiella pneumonia ATCC 4352 [8] | Minimum inhibitory concentration (MIC) Micrococcus luteus ATCC 9341 [9] | Minimum inhibitory concentration (MIC) Enterococcus hirae ATCC 10541 [10] | Minimum inhibitory concentration (MIC) Salmonella choleraesuis ATCC 10708 [11] | Minimum inhibitory concentration (MIC) S. hominis [12] | Minimum inhibitory concentration (MIC) E. coli [13] | Minimum inhibitory concentration (MIC) E. coli NCTC 8196 [13] |
| --- | --- | --- | --- | --- | --- | --- | --- | --- | --- | --- | --- | --- | --- | --- |
| NCCCCCCCCCNc1cc(C(F)(F)F)nc(-c2ccccn2)n1 [compound 30] | >60 µg/mL | >60 µg/mL | >60 µg/mL | >60 µg/mL | >60 µg/mL | >60 µg/mL | >60 µg/mL | >60 µg/mL | 60 µg/mL (≈ 157 µM) | >60 µg/mL | >60 µg/mL | 120 µg/mL (≈ 315 µM) | 120 µg/mL (≈ 315 µM) | >60 µg/mL |
| CC(C)c1cc(NCCCCCCCCCN)nc(-c2ccccn2)n1 [compound 42] | >60 µg/mL | >60 µg/mL | >60 µg/mL | >60 µg/mL | >60 µg/mL | 60 µg/mL (≈ 169 µM) | 60 µg/mL (≈ 169 µM) | >60 µg/mL | *15 μg/mL | >60 µg/mL | >60 µg/mL | 30 µg/mL (≈ 84.4 µM) | 120 µg/mL (≈ 338 µM) | >60 µg/mL |
| CCCCCCCCCCCCNc1cc(C(C)C)nc(-c2ccccn2)n1 [compound 48] | *60 μg/mL | >60 µg/mL | *60 μg/mL | *15 μg/mL | >60 µg/mL | <3.75 µg/mL | <3.75 µg/mL | >60 µg/mL | <3.75 µg/mL | <3.75 µg/mL | >60 µg/mL | 3.75 µg/mL (≈ 9.8 µM) | 120 µg/mL (≈ 314 µM) | >60 µg/mL |
| CC(C)(C)c1cc(NCCCCCCCCCN)nc(-c2ccccn2)n1 [compound 54] | >60 µg/mL | >60 µg/mL | >60 µg/mL | >60 µg/mL | >60 µg/mL | >60 µg/mL | *60 μg/mL | >60 µg/mL | 15 µg/mL (≈ 40.6 µM) | >60 µg/mL | >60 µg/mL | 30 µg/mL (≈ 81.2 µM) | 120 µg/mL (≈ 325 µM) | >60 µg/mL |
| CCCCCCCCCCCCNc1cc(C(C)(C)C)nc(-c2ccccn2)n1 [compound 60] | >60 µg/mL | >60 µg/mL | >60 µg/mL | >60 µg/mL | 60 µg/mL (≈ 151 µM) | *7.5 μg/mL | 15 µg/mL (≈ 37.8 µM) | >60 µg/mL | <3.75 µg/mL | 7.5 µg/mL (≈ 18.9 µM) | >60 µg/mL | 3.75 µg/mL (≈ 9.45 µM) | 120 µg/mL (≈ 303 µM) | >60 µg/mL |
